Holding throughout (assay type): biochemical
For one test, the target named is K-Ras G12C (Homo sapiens (Human), UniProt P01116+P62937, G12C). The test is described as follows: Ras-Raf (BRAF RBD) disruption / FRET / MOA assay, KRAS G12C. In outline:
(§1)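 A 10-point, 3-fold dilution series topping at 30 μM final was incubated 3 h at 25° C with the Ras/cyclophilin A/BRAF RBD mixture.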

The target in the next test is K-Ras G13C (Homo sapiens (Human), UniProt P01116+P62937, G13C). The test is described as follows: Ras-Raf (BRAF RBD) disruption / FRET / MOA assay, KRAS G13C. In outline:
as §1

The target of a further test is KRAS WT (Homo sapiens (Human), UniProt P01116+P62937). The test is described as follows: Ras-Raf (BRAF RBD) disruption / FRET / MOA assay, KRAS WT. As to conditions: read-out: IC50* KRAS WT FRET data. In outline: as §1
KRAS WT, sequence (P01116-2 other isoform, or with tags, fused parts or gaps): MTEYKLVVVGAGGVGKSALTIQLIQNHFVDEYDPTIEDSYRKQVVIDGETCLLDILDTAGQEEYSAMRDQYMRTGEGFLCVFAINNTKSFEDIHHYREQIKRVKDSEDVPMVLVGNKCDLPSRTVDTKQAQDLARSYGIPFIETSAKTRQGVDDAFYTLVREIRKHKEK
KRAS WT, sequence (P62937 whole entry): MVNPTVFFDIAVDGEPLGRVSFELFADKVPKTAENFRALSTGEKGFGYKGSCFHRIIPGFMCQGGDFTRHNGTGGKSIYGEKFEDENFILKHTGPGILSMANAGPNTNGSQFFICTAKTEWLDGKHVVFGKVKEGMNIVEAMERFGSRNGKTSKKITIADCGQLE
The target in another test is KRAS G13D (Homo sapiens (Human), UniProt P01116+P62937, G13D). The test is described as follows: Ras-Raf (BRAF RBD) disruption / FRET / MOA assay, KRAS G13D. As to conditions: read-out: IC50* KRAS G13D FRET data. In outline:
as §1

The target of the next test is NRAS G12C (Homo sapiens (Human), UniProt P01111+P62937, G12C). The test is described as follows: Ras-Raf (BRAF RBD) disruption / FRET / MOA assay, NRAS G12C. As to conditions: read-out: IC50* NRAS G12C FRET data. In outline:
as §1

Another test deals with NRAS Q61R (Homo sapiens (Human), UniProt P01111+P62937, Q61R). The test is described as follows: Ras-Raf (BRAF RBD) disruption / FRET / MOA assay, NRAS Q61R. As to conditions: NRAS Q61R; Ras-Raf disruption/FRET/MOA assay; read-out: IC50* NRAS Q61R FRET data. In outline: (§2)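 Compounds (30 μM top final, 10-point 3-fold dilutions) incubated 3 h at 25° C with nucleotide-loaded Ras, cyclophilin A and BRAF RBD. Detection with 10 nM anti-His Eu-W1024 and 50 nM anti-GST allophycocyanin over another 1.5 h. Lowered TR-FRET ratio relative to DMSO wells gives IC50.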
NRAS Q61R, sequence (P01111 whole entry Q61R): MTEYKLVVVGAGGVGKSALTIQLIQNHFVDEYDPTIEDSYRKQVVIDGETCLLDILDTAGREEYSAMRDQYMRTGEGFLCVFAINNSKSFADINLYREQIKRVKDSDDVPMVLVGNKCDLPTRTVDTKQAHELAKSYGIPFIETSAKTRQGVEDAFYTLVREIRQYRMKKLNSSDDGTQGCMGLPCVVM
NRAS Q61R, sequence (P62937 whole entry): as the sequence (P62937 whole entry) above

The next test concerns the target NRAS WT (Homo sapiens (Human), UniProt P01111+P62937). The test is described as follows: Ras-Raf (BRAF RBD) disruption / FRET / MOA assay, NRAS WT. As to conditions: read-out: IC50* NRAS WT FRET data. In outline: as §2
Where [1] appears, read: KRAS G12C, Ras-Raf disruption/FRET/MOA assay, read-out: IC50* KRAS G12C FRET data.
[2] abbreviates: KRAS G13C, Ras-Raf disruption/FRET/MOA assay, read-out: IC50* KRAS G13C FRET data.

SMILES strings stand for the structures. “And” between values parts separate entries of the source, which are not always exact repeats. Identical values can stand only once. Like-named read-outs stand apart in the source and are kept apart here. Some results are limits rather than exact numbers.

NRAS G12C, sequence (P01111 whole entry G12C): as the sequence (P01111 whole entry Q61R) above, with G12C, R61Q counted along it
NRAS G12C, sequence (P62937 whole entry): as the sequence (P62937 whole entry) above
K-Ras G13C, sequence (P01116-2 other isoform, or with tags, fused parts or gaps G13C): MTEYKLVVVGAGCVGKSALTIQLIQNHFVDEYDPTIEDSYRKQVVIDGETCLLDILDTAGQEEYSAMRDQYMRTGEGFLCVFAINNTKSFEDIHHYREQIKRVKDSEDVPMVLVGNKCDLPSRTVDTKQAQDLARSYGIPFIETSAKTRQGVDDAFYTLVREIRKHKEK
K-Ras G13C, sequence (P62937 whole entry): as the sequence (P62937 whole entry) above
K-Ras G12C, sequence (P01116-2 other isoform, or with tags, fused parts or gaps G12C): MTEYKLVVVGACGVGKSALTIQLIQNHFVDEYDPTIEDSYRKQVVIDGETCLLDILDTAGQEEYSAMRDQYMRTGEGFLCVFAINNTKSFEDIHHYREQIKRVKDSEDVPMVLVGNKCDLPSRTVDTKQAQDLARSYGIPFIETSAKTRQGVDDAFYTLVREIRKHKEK
K-Ras G12C, sequence (P62937 whole entry): as the sequence (P62937 whole entry) above
NRAS WT, sequence (P01111 whole entry): as the sequence (P01111 whole entry Q61R) above, with R61Q counted along it
NRAS WT, sequence (P62937 whole entry): as the sequence (P62937 whole entry) above
KRAS G13D, sequence (P01116-2 other isoform, or with tags, fused parts or gaps G13D): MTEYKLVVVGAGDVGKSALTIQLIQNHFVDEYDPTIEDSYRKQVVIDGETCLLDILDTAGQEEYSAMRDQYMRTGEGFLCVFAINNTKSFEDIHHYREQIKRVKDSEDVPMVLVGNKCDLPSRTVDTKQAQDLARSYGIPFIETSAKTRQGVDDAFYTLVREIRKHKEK
KRAS G13D, sequence (P62937 whole entry): as the sequence (P62937 whole entry) above

As to `C=CC(=O)N1CC[C@H](C(=O)N2CCCCC[C@H]2C(=O)N[C@H]2Cc3nc(cs3)-c3ccc4c(c3)c(c(-c3cccnc3[C@H](C)OC)n4CC)CC(C)(C)COC(=O)[C@@H]3CCCN(N3)C2=O)C1` (atropisomer, axis not shown) [Example A495], the IC50 on K-Ras G12C (setting [1]) is 100 to 1000 nM; on K-Ras G13C (setting [2]), 1000 to 10000 nM; at KRAS WT, 1000 to 10000 nM; on KRAS G13D, over 10000 nM; at NRAS G12C it was 100 to 1000 nM; on NRAS Q61R it was 1000 to 10000 nM. The IC50 at NRAS WT was in the range of 1000 to 10000 nM.
As for `C=CC(=O)N1CCC2(CCN(C(=O)N(C)[C@H](C(=O)N[C@H]3Cc4cccc(c4)-c4ccc5c(c4)c(c(-c4cccnc4[C@H](C)OC)n5CC)CC(C)(C)COC(=O)[C@@H]4CCCN(N4)C3=O)C(C)C)CC2)C1` (atropisomer, axis not shown) [Example A554], the IC50 fell in the range of 100 to 1000 nM on K-Ras G12C (setting [1]); 10 to 100 nM on K-Ras G13C (setting [2]); 100 to 1000 nM at KRAS WT; 1000 to 10000 nM on KRAS G13D; 100 to 1000 nM on NRAS G12C; 100 to 1000 nM on NRAS Q61R. Also, the IC50 at NRAS WT lay within 100 to 1000 nM.
Turning to `CCn1c(-c2cccnc2[C@H](C)OC)c2c3cc(ccc31)-c1cccc(c1)C[C@H](NC(=O)[C@@H](COC1CN(C(=O)C#CC(C)(C)O)C1)C(C)C)C(=O)N1CCC[C@H](N1)C(=O)OCC(C)(C)C2` (atropisomer, axis not shown) [Example A708], the IC50 was 100 to 1000 nM at K-Ras G12C (setting [1]); 1000 to 10000 nM at K-Ras G13C (setting [2]); 1000 to 10000 nM on KRAS WT; over 10000 nM on KRAS G13D; 100 to 1000 nM at NRAS G12C; over 10000 nM on NRAS Q61R. The IC50 at NRAS WT was 1000 to 10000 nM.
For `C=CC(=O)N(C)[C@H]1CN(C(=O)N(C)[C@H](C(=O)N[C@H]2Cc3nc(cs3)-c3ccc4c(c3)c(c(-c3cccnc3[C@H](C)OC)n4CC)CC(C)(C)COC(=O)[C@@H]3CCCN(N3)C2=O)C(C)C)C[C@@H]1F` (atropisomer, axis not shown) [Example A632], the IC50 at K-Ras G12C (setting [1]) lay in the range of 10 to 100 nM; on K-Ras G13C (setting [2]), 10 to 100 nM; at KRAS WT, 100 to 1000 nM; on KRAS G13D, 1000 to 10000 nM; at NRAS G12C it was 10 to 100 nM; at NRAS Q61R, 100 to 1000 nM. At NRAS WT, the IC50 fell in the range of 100 to 1000 nM.
Turning to `C=CC(=O)N1CC[C@H](C(=O)N(C)[C@H](C(=O)N[C@H]2Cc3cc(O)cc(c3)-c3ccc4c(c3)c(c(-c3cccnc3[C@H](CC)OC)n4CC)CC(C)(C)COC(=O)[C@@H]3CCCN(N3)C2=O)C(C)C)C1` (atropisomer, axis not shown) [Example A181], the IC50 on K-Ras G12C (setting [1]) was 10 to 100 nM and 100 to 1000 nM; at K-Ras G13C (setting [2]), 100 to 1000 nM and 1000 to 10000 nM; at KRAS WT, 100 to 1000 nM and 1000 to 10000 nM; on KRAS G13D, 100 to 1000 nM and 1000 to 10000 nM; on NRAS G12C, 10 to 100 nM and 100 to 1000 nM; on NRAS Q61R, 100 to 1000 nM. In addition, at NRAS WT, the IC50 lay in the range of 100 to 1000 nM.
In the case of `C=CC(=O)N1CCC2(CCCN(C(=O)N(C)[C@H](C(=O)N[C@H]3Cc4nc(cs4)-c4ccc5c(c4)c(c(-c4cccnc4[C@H](C)OC)n5CC)CC(C)(C)COC(=O)[C@@H]4CCCN(N4)C3=O)C(C)C)C2)CC1` (atropisomer, axis not shown) [Example A696], the IC50 at K-Ras G12C (setting [1]) lay within 100 to 1000 nM; at K-Ras G13C (setting [2]) it was 100 to 1000 nM; at KRAS WT, 100 to 1000 nM; at KRAS G13D, 1000 to 10000 nM; at NRAS G12C, 100 to 1000 nM; at NRAS Q61R, 100 to 1000 nM. For the same molecule, the half-inhibitory concentration (IC50) on NRAS WT fell in the range of 100 to 1000 nM.
As for `CCn1c(-c2cccnc2[C@H](C)OC)c2c3cc(ccc31)-c1csc(n1)C[C@H](NC(=O)CCO[C@H]1CCN(C(=O)C#CC(C)(C)N3CCC3)C1)C(=O)N1CCC[C@H](N1)C(=O)OCC(C)(C)C2` (atropisomer, axis not shown) [Example A381], the IC50 at K-Ras G12C (setting [1]) was under 10 nM; on K-Ras G13C (setting [2]), 1000 to 10000 nM; at KRAS WT, 1000 to 10000 nM; on KRAS G13D, 1000 to 10000 nM; on NRAS G12C, 10 to 100 nM; at NRAS Q61R it was 1000 to 10000 nM. Further, at NRAS WT, the IC50 lay in the range of 1000 to 10000 nM.
Turning to `C=CC(=O)N1CC[C@H](C(=O)N(C)[C@H](C(=O)N[C@H]2Cc3cc(O)cc(c3)-c3ccc4c(c3)c(c(-c3csc(N(C)C)n3)n4CC)CC(C)(C)COC(=O)[C@@H]3CCCN(N3)C2=O)C(C)C)C1` [Example A303], the IC50 at K-Ras G12C (setting [1]) is 1000 to 10000 nM; on K-Ras G13C (setting [2]), over 10000 nM; at KRAS WT, over 10000 nM; on KRAS G13D, over 10000 nM; on NRAS G12C, 1000 to 10000 nM; at NRAS Q61R it was over 10000 nM. In addition, the IC50 on NRAS WT was over 10000 nM.
For `C=CC(=O)N1CCO[C@]2(CCN(C(=O)N(C)[C@H](C(=O)N[C@H]3Cc4nc(cs4)-c4ccc5c(c4)c(c(-c4cccnc4[C@H](C)OC)n5CC(F)(F)F)CC(C)(C)COC(=O)[C@@H]4CCCN(N4)C3=O)C(C)C)C2)C1` (atropisomer, axis not shown) [Example A593], the IC50 was 100 to 1000 nM on K-Ras G12C (setting [1]); 100 to 1000 nM at K-Ras G13C (setting [2]); 1000 to 10000 nM at KRAS WT; 1000 to 10000 nM on KRAS G13D; 100 to 1000 nM at NRAS G12C; 100 to 1000 nM at NRAS Q61R. Moreover, the IC50 at NRAS WT was 100 to 1000 nM.
For the molecule `C=CC(=O)C1CC[C@H](C(=O)N(C)[C@H](C(=O)N[C@H]2Cc3nsc(n3)-c3ccc4c(c3)c(c(-c3cccnc3[C@H](C)OC)n4CC)CC(C)(C)COC(=O)[C@@H]3CCCN(N3)C2=O)C(C)C)C1` (stereo partly shown) [Example A694], the IC50 lay in the range of 100 to 1000 nM on K-Ras G12C (setting [1]); 100 to 1000 nM on K-Ras G13C (setting [2]); 1000 to 10000 nM at KRAS WT; 1000 to 10000 nM on KRAS G13D; 100 to 1000 nM on NRAS G12C; 1000 to 10000 nM at NRAS Q61R. For the same molecule, the IC50 at NRAS WT was in the range of 1000 to 10000 nM.
Regarding `C=CC(=O)N1CC[C@H](C(=O)N(C)[C@H](C(=O)N[C@H]2Cc3cc(O)cc(c3)-c3ccc4c(c3)c(c(-c3cccnc3)n4[C@H](C)C#N)CC(C)(C)COC(=O)[C@@H]3CCCN(N3)C2=O)C(C)C)C1` [Example A193], the IC50 on K-Ras G12C (setting [1]) was 10 to 100 nM; at K-Ras G12C (with Cyclophilin A, BRAF RBD, read-out: FRET (K-Ras G12C) IC50), 295 nM; at K-Ras G13C (setting [2]) it was 1000 to 10000 nM; at K-Ras G13C (with Cyclophilin A, BRAF RBD, read-out: FRET (K-Ras G13C) IC50), 10200 nM; at KRAS WT, 1000 to 10000 nM; at KRAS G13D, 1000 to 10000 nM. The IC50 was in the range of 100 to 1000 nM at NRAS G12C, 1000 to 10000 nM on NRAS Q61R and 1000 to 10000 nM at NRAS WT.

The values above are taken from patent US11566007B2, “Ras inhibitors” (Revolution Medicines, Inc., priority 2019, dated 2023).
